Test results from patent US6482255B1, “Disazodyes for ink jet printing” (Avecia Limited, priority 1997, dated 2002).

Assay: Solubility of dye or dye composition in water
Format: physicochemical
Procedure: The method of Example 1 was repeated except that the condensation reaction with ethanolamine in stage (iv) was stopped after 2.5 hours. The product was a mixture of Dye (A), Dye (B) and Dye (C) in relative proportions 43:35:22 by weight. This dye mixture has a solubility of 10% in water at 20° C. compared to a solubility of 3% for Dye (A) alone under the same conditions.
The ratio of Dyes (A), (B) and (C) in Example 4 may be varied by altering the time and temperature of the ethanolamine condensation step (Example 1, step (iv)). The solubility of a variety of dye compositions in water at 20° C. and pH 9.5 is shown in Table 2 below together with optical density, light fastness (ΔE after 50 hours) and wet-fastness results of prints prepared from these compositions. The prints were prepared by printing an ink formed by dissolving 2.5 parts of each composition in 97.5 parts of a mixture consisting of 88 parts water, 5 parts thiodiglycol, 5 parts 2-pyrrolidone and 2 parts Surfynol 465™ (a non-ionic surfactant) onto the substrate shown in the third column of Table 2 using a Canon 4300 ink jet printer.

solubility in water (water at 20° C.): 3% | Solubility (%) (water at 20° C. and pH 9.5): 3%
SMILES: CNCCCNc1nc(NCCO)nc(Nc2ccc(/N=N/c3c(N)ccc4cc(S(=O)(=O)O)cc(O)c34)c(S(=O)(=O)O)c2)n1 [Dye (1)]
